Results: ChEMBL document CHEMBL1649134, “Occurrence of efflux mechanism and cephalosporinase variant in a population of Enterobacter aerogenes and Klebsiella pneumoniae isolates producing extended-spectrum beta-lactamases” (2009)
In brackets after ≈: the same amount, converted by molar mass.

Tests used:
Format in all cases: functional
Klebsiella aerogenes [1] = assay: Antimicrobial activity against multidrug resistant Enterobacter aerogenes isolate 17 by broth dilution method
Klebsiella aerogenes [2] = assay: Antimicrobial activity against multidrug resistant Enterobacter aerogenes isolate 8 by broth dilution method in presence of 26.3 mg/L efflux pump inhibitor phenylalanine-arginine-beta-naphthylamide
Klebsiella pneumoniae [3] = assay: Antimicrobial activity against multidrug resistant Klebsiella pneumoniae isolate 12 by broth dilution method in presence of 26.3 mg/L efflux pump inhibitor phenylalanine-arginine-beta-naphthylamide
Klebsiella aerogenes [4] = assay: Antimicrobial activity against multidrug resistant Enterobacter aerogenes isolate 1 by broth dilution method
Klebsiella aerogenes [5] = assay: Antimicrobial activity against multidrug resistant Enterobacter aerogenes isolate 20 by broth dilution method
Klebsiella aerogenes [6] = assay: Antimicrobial activity against multidrug resistant Enterobacter aerogenes isolate 16 by broth dilution method
Klebsiella aerogenes [7] = assay: Antimicrobial activity against multidrug resistant Enterobacter aerogenes isolate 15 by broth dilution method
Klebsiella aerogenes [8] = assay: Antimicrobial activity against multidrug resistant Enterobacter aerogenes isolate 14 by broth dilution method
Klebsiella aerogenes [9] = assay: Antimicrobial activity against multidrug resistant Enterobacter aerogenes isolate 9 by broth dilution method in presence of 26.3 mg/L efflux pump inhibitor phenylalanine-arginine-beta-naphthylamide
Klebsiella aerogenes [10] = assay: Antimicrobial activity against multidrug resistant Enterobacter aerogenes isolate 25 by broth dilution method in presence of 26.3 mg/L efflux pump inhibitor phenylalanine-arginine-beta-naphthylamide
Klebsiella aerogenes [11] = assay: Antimicrobial activity against multidrug resistant Enterobacter aerogenes isolate 15 by broth dilution method in presence of 26.3 mg/L efflux pump inhibitor phenylalanine-arginine-beta-naphthylamide
Klebsiella pneumoniae [12] = assay: Antimicrobial activity against multidrug resistant Klebsiella pneumoniae isolate 3 by broth dilution method in presence of 26.3 mg/L efflux pump inhibitor phenylalanine-arginine-beta-naphthylamide
Klebsiella aerogenes [13] = assay: Antimicrobial activity against multidrug resistant Enterobacter aerogenes isolate 3 by broth dilution method
Klebsiella aerogenes [14] = assay: Antimicrobial activity against multidrug resistant Enterobacter aerogenes isolate 24 by broth dilution method
Klebsiella aerogenes [15] = assay: Antimicrobial activity against multidrug resistant Enterobacter aerogenes isolate 23 by broth dilution method in presence of 26.3 mg/L efflux pump inhibitor phenylalanine-arginine-beta-naphthylamide
Klebsiella pneumoniae [16] = assay: Antimicrobial activity against multidrug resistant Klebsiella pneumoniae isolate 1 by broth dilution method
Klebsiella pneumoniae [17] = assay: Antimicrobial activity against multidrug resistant Klebsiella pneumoniae isolate 8 by broth dilution method in presence of 26.3 mg/L efflux pump inhibitor phenylalanine-arginine-beta-naphthylamide
Klebsiella pneumoniae [18] = assay: Antimicrobial activity against multidrug resistant Klebsiella pneumoniae isolate 14 by broth dilution method in presence of 26.3 mg/L efflux pump inhibitor phenylalanine-arginine-beta-naphthylamide
Klebsiella aerogenes [19] = assay: Antimicrobial activity against multidrug resistant Enterobacter aerogenes isolate 2 by broth dilution method
Klebsiella pneumoniae [20] = assay: Antimicrobial activity against multidrug resistant Klebsiella pneumoniae isolate 7 by broth dilution method in presence of 26.3 mg/L efflux pump inhibitor phenylalanine-arginine-beta-naphthylamide
Klebsiella pneumoniae [21] = assay: Antimicrobial activity against multidrug resistant Klebsiella pneumoniae isolate 2 by broth dilution method in presence of 26.3 mg/L efflux pump inhibitor phenylalanine-arginine-beta-naphthylamide
Klebsiella aerogenes [22] = assay: Antimicrobial activity against multidrug resistant Enterobacter aerogenes isolate 1 by broth dilution method in presence of 26.3 mg/L efflux pump inhibitor phenylalanine-arginine-beta-naphthylamide
Klebsiella pneumoniae [23] = assay: Antimicrobial activity against multidrug resistant Klebsiella pneumoniae isolate 13 by broth dilution method
Klebsiella aerogenes [24] = assay: Antimicrobial activity against multidrug resistant Enterobacter aerogenes isolate 7 by broth dilution method
Klebsiella aerogenes [25] = assay: Antimicrobial activity against multidrug resistant Enterobacter aerogenes isolate 14 by broth dilution method in presence of 26.3 mg/L efflux pump inhibitor phenylalanine-arginine-beta-naphthylamide
Klebsiella aerogenes [26] = assay: Antimicrobial activity against multidrug resistant Enterobacter aerogenes isolate 11 by broth dilution method in presence of 26.3 mg/L efflux pump inhibitor phenylalanine-arginine-beta-naphthylamide
Klebsiella pneumoniae [27] = assay: Antimicrobial activity against multidrug resistant Klebsiella pneumoniae isolate 11 by broth dilution method in presence of 26.3 mg/L efflux pump inhibitor phenylalanine-arginine-beta-naphthylamide
Klebsiella pneumoniae [28] = assay: Antimicrobial activity against multidrug resistant Klebsiella pneumoniae isolate 10 by broth dilution method
Klebsiella aerogenes [29] = assay: Antimicrobial activity against multidrug resistant Enterobacter aerogenes isolate 21 by broth dilution method in presence of 26.3 mg/L efflux pump inhibitor phenylalanine-arginine-beta-naphthylamide
Klebsiella pneumoniae [30] = assay: Antimicrobial activity against multidrug resistant Klebsiella pneumoniae isolate 14 by broth dilution method
Klebsiella aerogenes [31] = assay: Antimicrobial activity against multidrug resistant Enterobacter aerogenes isolate 22 by broth dilution method in presence of 26.3 mg/L efflux pump inhibitor phenylalanine-arginine-beta-naphthylamide
Klebsiella aerogenes [32] = assay: Antimicrobial activity against multidrug resistant Enterobacter aerogenes isolate 12 by broth dilution method
Klebsiella aerogenes [33] = assay: Antimicrobial activity against multidrug resistant Enterobacter aerogenes isolate 10 by broth dilution method in presence of 26.3 mg/L efflux pump inhibitor phenylalanine-arginine-beta-naphthylamide
Klebsiella aerogenes [34] = assay: Antimicrobial activity against multidrug resistant Enterobacter aerogenes isolate 4 by broth dilution method in presence of 26.3 mg/L efflux pump inhibitor phenylalanine-arginine-beta-naphthylamide
Klebsiella pneumoniae [35] = assay: Antimicrobial activity against multidrug resistant Klebsiella pneumoniae isolate 4 by broth dilution method
Klebsiella pneumoniae [36] = assay: Antimicrobial activity against multidrug resistant Klebsiella pneumoniae isolate 11 by broth dilution method
Klebsiella pneumoniae [37] = assay: Antimicrobial activity against multidrug resistant Klebsiella pneumoniae isolate 5 by broth dilution method
Klebsiella aerogenes [38] = assay: Antimicrobial activity against multidrug resistant Enterobacter aerogenes isolate 13 by broth dilution method
Klebsiella aerogenes [39] = assay: Antimicrobial activity against multidrug resistant Enterobacter aerogenes isolate 3 by broth dilution method in presence of 26.3 mg/L efflux pump inhibitor phenylalanine-arginine-beta-naphthylamide
Klebsiella aerogenes [40] = assay: Antimicrobial activity against multidrug resistant Enterobacter aerogenes isolate 2 by broth dilution method in presence of 26.3 mg/L efflux pump inhibitor phenylalanine-arginine-beta-naphthylamide
Klebsiella aerogenes [41] = assay: Antimicrobial activity against multidrug resistant Enterobacter aerogenes ATCC 15038 by broth dilution method
Klebsiella aerogenes [42] = assay: Antimicrobial activity against multidrug resistant Enterobacter aerogenes isolate 18 by broth dilution method in presence of 26.3 mg/L efflux pump inhibitor phenylalanine-arginine-beta-naphthylamide
Klebsiella pneumoniae [43] = assay: Antimicrobial activity against multidrug resistant Klebsiella pneumoniae isolate 1 by broth dilution method in presence of 26.3 mg/L efflux pump inhibitor phenylalanine-arginine-beta-naphthylamide
Klebsiella pneumoniae [44] = assay: Antimicrobial activity against multidrug resistant Klebsiella pneumoniae isolate 8 by broth dilution method
Klebsiella aerogenes [45] = assay: Antimicrobial activity against multidrug resistant Enterobacter aerogenes ATCC 15038 by broth dilution method in presence of 26.3 mg/L efflux pump inhibitor phenylalanine-arginine-beta-naphthylamide
Klebsiella pneumoniae [46] = assay: Antimicrobial activity against multidrug resistant Klebsiella pneumoniae isolate 2 by broth dilution method
Klebsiella pneumoniae [47] = assay: Antimicrobial activity against multidrug resistant Klebsiella pneumoniae ATCC 11296 by broth dilution method in presence of 26.3 mg/L efflux pump inhibitor phenylalanine-arginine-beta-naphthylamide
Klebsiella aerogenes [48] = assay: Antimicrobial activity against multidrug resistant Enterobacter aerogenes isolate 25 by broth dilution method
Klebsiella aerogenes [49] = assay: Antimicrobial activity against multidrug resistant Enterobacter aerogenes isolate 17 by broth dilution method in presence of 26.3 mg/L efflux pump inhibitor phenylalanine-arginine-beta-naphthylamide

CCn1cc(C(=O)O)c(=O)c2cc(F)c(N3CCNCC3)cc21 [NORFLOXACIN] showed an MIC (Klebsiella aerogenes [1]) of over 512 µg/mL, an MIC (Klebsiella aerogenes [2]) of 128 µg/mL and an MIC (Klebsiella pneumoniae [3]) of 0.25 µg/mL. The MIC (Klebsiella aerogenes [4]) was 256 µg/mL (≈ 802 µM), the MIC (Klebsiella aerogenes [5]) was 512 µg/mL (≈ 1600 µM) and the MIC (Klebsiella aerogenes [6]) was 512 µg/mL (≈ 1600 µM). For the same molecule, the MIC (Klebsiella aerogenes [7]) was 512 µg/mL (≈ 1600 µM), the MIC (Klebsiella aerogenes [8]) was 512 µg/mL (≈ 1600 µM) and the MIC (Klebsiella aerogenes [9]) was 128 µg/mL. The MIC (Klebsiella aerogenes [10]) was 128 µg/mL, the MIC (Klebsiella aerogenes [11]) was 128 µg/mL and the MIC (Klebsiella pneumoniae [12]) was 128 µg/mL. For the same molecule, the MIC (Klebsiella aerogenes [13]) was 256 µg/mL (≈ 802 µM), the MIC (Klebsiella aerogenes [14]) was 512 µg/mL (≈ 1600 µM) and the MIC (Klebsiella aerogenes [15]) was 256 µg/mL. It also gave an MIC (Klebsiella pneumoniae [16]) of 2 µg/mL (≈ 6.26 µM), an MIC (Klebsiella pneumoniae [17]) of 0.25 µg/mL and an MIC (Klebsiella pneumoniae [18]) of 0.25 µg/mL. The MIC (Klebsiella aerogenes [19]) was 256 µg/mL (≈ 802 µM), the MIC (Klebsiella pneumoniae [20]) was 0.25 µg/mL and the MIC (Klebsiella pneumoniae [21]) was 2 µg/mL. The MIC (Klebsiella aerogenes [22]) was 256 µg/mL, the MIC (Klebsiella pneumoniae [23]) was over 256 µg/mL and the MIC (Klebsiella aerogenes [24]) was 256 µg/mL (≈ 802 µM). The MIC (Klebsiella aerogenes [25]) was 512 µg/mL, the MIC (Klebsiella aerogenes [26]) was 256 µg/mL and the MIC (Klebsiella pneumoniae [27]) was 64 µg/mL. For the same molecule, the MIC (Klebsiella pneumoniae [28]) was 128 µg/mL (≈ 401 µM), the MIC (Klebsiella aerogenes [29]) was 128 µg/mL and the MIC (Klebsiella pneumoniae [30]) was 8 µg/mL (≈ 25.1 µM). The MIC (Klebsiella aerogenes [31]) was 128 µg/mL, the MIC (Klebsiella aerogenes [32]) was 512 µg/mL (≈ 1600 µM) and the MIC (Klebsiella aerogenes [33]) was 256 µg/mL. The MIC (Klebsiella aerogenes [34]) was 512 µg/mL, the MIC (Klebsiella pneumoniae [35]) was 128 µg/mL (≈ 401 µM) and the MIC (Klebsiella pneumoniae [36]) was 64 µg/mL (≈ 200 µM). The MIC (Klebsiella pneumoniae [37]) was 2 µg/mL (≈ 6.26 µM), the MIC (Klebsiella aerogenes [38]) was 512 µg/mL (≈ 1600 µM) and the MIC (Klebsiella aerogenes [39]) was 256 µg/mL. It also gave an MIC (Klebsiella aerogenes [40]) of 256 µg/mL, an MIC (Klebsiella aerogenes [41]) of 0.125 µg/mL (≈ 0.391 µM) and an MIC (Klebsiella aerogenes [42]) of 128 µg/mL. It also gave an MIC (Klebsiella pneumoniae [43]) of 2 µg/mL, an MIC (Klebsiella pneumoniae [44]) of 2 µg/mL (≈ 6.26 µM) and an MIC (Klebsiella aerogenes [45]) of 0.125 µg/mL. The MIC (Klebsiella pneumoniae [46]) was 4 µg/mL (≈ 12.5 µM), the MIC (Klebsiella pneumoniae [47]) was 0.125 µg/mL and the MIC (Klebsiella aerogenes [48]) was 256 µg/mL (≈ 802 µM). For the same molecule, the MIC (Klebsiella aerogenes [49]) was 128 µg/mL.
CN(C)[C@@H]1C(O)=C(C(N)=O)C(=O)[C@@]2(O)C(O)=C3C(=O)c4c(O)cccc4[C@@](C)(O)[C@H]3C[C@@H]12 [TETRACYCLINE] was tested, and the MIC (Klebsiella aerogenes [1]) was 64 µg/mL (≈ 144 µM), the MIC (Klebsiella aerogenes [2]) was 2 µg/mL and the MIC (Klebsiella pneumoniae [3]) was 256 µg/mL. The MIC (Klebsiella aerogenes [4]) was 128 µg/mL (≈ 288 µM), the MIC (Klebsiella aerogenes [5]) was 64 µg/mL (≈ 144 µM) and the MIC (Klebsiella aerogenes [6]) was 64 µg/mL (≈ 144 µM). It also gave an MIC (Klebsiella aerogenes [7]) of 64 µg/mL (≈ 144 µM), an MIC (Klebsiella aerogenes [8]) of 64 µg/mL (≈ 144 µM) and an MIC (Klebsiella aerogenes [9]) of 4 µg/mL. For the same molecule, the MIC (Klebsiella aerogenes [10]) was 4 µg/mL, the MIC (Klebsiella aerogenes [11]) was 8 µg/mL and the MIC (Klebsiella pneumoniae [12]) was 256 µg/mL. It also gave an MIC (Klebsiella aerogenes [13]) of 128 µg/mL (≈ 288 µM), an MIC (Klebsiella aerogenes [14]) of 64 µg/mL (≈ 144 µM) and an MIC (Klebsiella aerogenes [15]) of 8 µg/mL. The MIC (Klebsiella pneumoniae [16]) was 8 µg/mL (≈ 18 µM), the MIC (Klebsiella pneumoniae [17]) was 128 µg/mL and the MIC (Klebsiella pneumoniae [18]) was 256 µg/mL. For the same molecule, the MIC (Klebsiella aerogenes [19]) was 64 µg/mL (≈ 144 µM), the MIC (Klebsiella pneumoniae [20]) was 128 µg/mL and the MIC (Klebsiella pneumoniae [21]) was 2 µg/mL. It also gave an MIC (Klebsiella aerogenes [22]) of 8 µg/mL, an MIC (Klebsiella pneumoniae [23]) of 4 µg/mL (≈ 9 µM) and an MIC (Klebsiella aerogenes [24]) of 128 µg/mL (≈ 288 µM). The MIC (Klebsiella aerogenes [25]) was 16 µg/mL, the MIC (Klebsiella aerogenes [26]) was 8 µg/mL and the MIC (Klebsiella pneumoniae [27]) was 4 µg/mL. The MIC (Klebsiella pneumoniae [28]) was 2 µg/mL (≈ 4.5 µM), the MIC (Klebsiella aerogenes [29]) was 8 µg/mL and the MIC (Klebsiella pneumoniae [30]) was 2 µg/mL (≈ 4.5 µM). The MIC (Klebsiella aerogenes [31]) was 4 µg/mL, the MIC (Klebsiella aerogenes [32]) was 128 µg/mL (≈ 288 µM) and the MIC (Klebsiella aerogenes [33]) was 8 µg/mL. It also gave an MIC (Klebsiella aerogenes [34]) of 8 µg/mL, an MIC (Klebsiella pneumoniae [35]) of 2 µg/mL (≈ 4.5 µM) and an MIC (Klebsiella pneumoniae [36]) of 4 µg/mL (≈ 9 µM). For the same molecule, the MIC (Klebsiella pneumoniae [37]) was 2 µg/mL (≈ 4.5 µM), the MIC (Klebsiella aerogenes [38]) was 64 µg/mL (≈ 144 µM) and the MIC (Klebsiella aerogenes [39]) was 8 µg/mL. The MIC (Klebsiella aerogenes [40]) was 4 µg/mL, the MIC (Klebsiella aerogenes [41]) was 1 µg/mL (≈ 2.25 µM) and the MIC (Klebsiella aerogenes [42]) was 4 µg/mL. It also gave an MIC (Klebsiella pneumoniae [43]) of 128 µg/mL, an MIC (Klebsiella pneumoniae [44]) of 2 µg/mL (≈ 4.5 µM) and an MIC (Klebsiella aerogenes [45]) of 0.5 µg/mL. It also gave an MIC (Klebsiella pneumoniae [46]) of 64 µg/mL (≈ 144 µM), an MIC (Klebsiella pneumoniae [47]) of 1 µg/mL and an MIC (Klebsiella aerogenes [48]) of 64 µg/mL (≈ 144 µM). It also gave an MIC (Klebsiella aerogenes [49]) of 8 µg/mL.
